Test results taken from publication PMC11121358, “Redox Properties of Bacillus subtilis Ferredoxin:NADP^+ Oxidoreductase: Potentiometric Characteristics and Reactions with Pro-Oxidant Xenobiotics” (International Journal of Molecular Sciences, 2024).

Biological target: T1, Bacillus subtilis ferredoxin:NADP^+ oxidoreductase (BsFNR) (Bacillus subtilis, UniProt O05268)
T1 construct: gene yumC
Assay: steady-state product inhibition of NADPH:plumbagin reductase reaction
Assay type: biochemical

T1 sequence (O05268 whole entry): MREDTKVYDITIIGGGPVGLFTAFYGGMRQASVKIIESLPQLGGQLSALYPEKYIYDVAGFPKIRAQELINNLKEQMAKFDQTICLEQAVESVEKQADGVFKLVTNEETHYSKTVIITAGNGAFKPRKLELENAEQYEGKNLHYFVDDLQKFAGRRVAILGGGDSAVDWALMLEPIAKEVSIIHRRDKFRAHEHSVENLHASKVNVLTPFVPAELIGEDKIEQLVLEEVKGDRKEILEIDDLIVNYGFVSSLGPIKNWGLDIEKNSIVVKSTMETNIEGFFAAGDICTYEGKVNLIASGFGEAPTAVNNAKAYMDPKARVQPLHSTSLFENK

With `NC(=O)c1ccc[n+]([C@@H]2O[C@H](COP(=O)(O)OP(=O)(O)OC[C@H]3O[C@@H](n4cnc5c(N)ncnc54)[C@H](OP(=O)(O)O)[C@@H]3O)[C@@H](O)[C@H]2O)c1` [NADP^+] the Ki was 62.6 ± 10.5 µM.
